Experiments:
Assay in all cases: relative viability (nuclei count vs DMSO), 5 days (fraction); higher = more cells survive
[1] = compound: N#CC1(c2ccc(NC(=O)c3cccnc3NCc3ccncc3)cc2)CCCC1 [Apatinib] + CS(=O)(=O)N1CCN(Cc2cc3nc(-c4cccc5[nH]ncc45)nc(N4CCOCC4)c3s2)CC1 [Pictilisib] (partner 1 µM)
Method in brief: (§1)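 After 5 days of treatment, lung cancer cells in 1536-well plates were fixed and stained in a single step (final 0.05% Triton X-100, 1% formaldehyde, 1 ug/ml Hoechst) and their nuclei counted on 4× images. Treatment had been applied by pin tool the day after seeding as one drug alone or as a fixed anchor-drug dose with five library-drug doses (not always all listed) in √10 steps. Relative viability is the nuclei count of treated wells divided by that of vehicle wells, and values are medians of duplicate plates.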

[2] = compound: N#CC1(c2ccc(NC(=O)c3cccnc3NCc3ccncc3)cc2)CCCC1 [Apatinib] + O=C(c1cc(Cc2n[nH]c(=O)c3ccccc23)ccc1F)N1CCN(C(=O)C2CC2)CC1 [Olaparib] (partner 8 µM)
Method in brief: as §1

[3] = compound: CN(C)C(=N)NC(=N)N [Metformin] + CC(=O)Nc1cccc(-n2c(=O)n(C3CC3)c(=O)c3c(Nc4ccc(I)cc4F)n(C)c(=O)c(C)c32)c1 [Trametinib] (partner 0.02 µM)
Method in brief: as §1

[4] = compound: CN(C)C(=N)NC(=N)N [Metformin] + CCNC(=O)c1noc(-c2cc(C(C)C)c(O)cc2O)c1-c1ccc(CN2CCOCC2)cc1 [Luminespib] (partner 0.01 µM)
Method in brief: as §1

Cell Line	relative viability ([1]; first compound 0.08 µM)	relative viability ([1]; first compound 0.253 µM)	relative viability ([1]; first compound 0.8 µM)	relative viability ([1]; first compound 2.53 µM)	relative viability ([1]; first compound 8 µM)	relative viability ([2]; first compound 0.08 µM)	relative viability ([2]; first compound 0.253 µM)	relative viability ([2]; first compound 0.8 µM)	relative viability ([2]; first compound 2.53 µM)	relative viability ([2]; first compound 8 µM)	relative viability ([3]; first compound 10 µM)	relative viability ([3]; first compound 31.62 µM)	relative viability ([3]; first compound 100 µM)	relative viability ([3]; first compound 316.23 µM)	relative viability ([3]; first compound 1000 µM)	relative viability ([4]; first compound 10 µM)	relative viability ([4]; first compound 31.62 µM)	relative viability ([4]; first compound 100 µM)	relative viability ([4]; first compound 316.23 µM)	relative viability ([4]; first compound 1000 µM)
RERF-LC-KJ	0.591	0.701	0.438	0.469	0.462	0.919	0.801	0.903	0.782	0.715	0.774	0.794	0.775	0.676	0.707	1.11	1.15	0.979	0.808	0.864
NCI-H647	0.492	0.5	0.419	0.349	0.395	0.65	0.794	0.508	0.418	0.305	0.479	0.598	0.498	0.482	0.556	0.187	0.154	0.278	0.16	0.113
NCI-H1395	0.594	0.552	0.64	0.524	0.555	0.485	0.459	0.488	0.452	0.395	0.945	1.05	0.896	0.974	0.756	0.706	0.697	0.826	0.834	0.773
NCI-H522	–	–	–	–	–	0.667	0.644	0.615	0.692	0.584	1.07	0.749	0.725	0.899	1.21	1.4	1.27	1.65	1.54	1.33
NCI-H322M	0.513	0.488	0.523	0.627	0.528	0.791	0.759	0.686	0.772	0.805	0.518	0.487	0.506	0.561	0.529	0.831	0.884	1.05	0.912	0.826
H3255	0.448	0.454	0.388	0.436	0.447	0.621	0.627	0.609	0.516	0.455	0.587	0.789	0.648	0.57	0.508	0.858	1.01	0.88	0.657	0.867
201T	0.748	0.643	0.662	0.604	0.663	0.872	0.817	0.789	0.9	0.749	–	0.679	0.735	0.684	0.681	–	1.15	1.1	1.06	1.03
SW 1573	0.588	0.476	0.548	0.517	0.535	0.586	0.506	0.463	0.325	0.357	0.67	0.559	0.522	0.211	0.367	0.266	0.255	0.51	0.157	0.153
NCI-H2170	0.329	0.301	0.304	0.306	0.315	0.617	0.623	0.638	0.49	0.485	0.789	0.779	0.903	0.869	0.945	0.571	0.677	0.766	0.68	0.632
NCI-H1993	0.874	0.828	0.803	0.731	0.817	0.991	1.05	1.05	0.984	1.04	0.477	0.634	0.497	0.425	0.611	0.994	1.09	0.713	0.856	0.934
NCI-H1755	0.443	0.416	0.447	0.461	0.376	0.846	0.892	0.835	0.876	0.753	0.683	0.626	0.656	0.682	0.676	0.504	0.565	0.475	0.419	0.418
NCI-H1437	0.468	0.441	0.377	0.392	0.284	0.61	0.663	0.57	0.574	0.496	0.638	0.703	0.631	0.701	0.627	1.15	1.16	1.19	1.08	1.12
EPLC-272H	0.351	0.331	0.357	0.324	0.349	0.759	0.806	0.822	0.605	0.604	0.341	0.316	0.291	0.311	0.337	0.398	0.335	0.27	0.25	0.413
LK-2	0.532	0.511	0.484	0.326	0.428	0.903	0.581	0.64	0.63	0.515	0.829	1.23	1.54	1.08	1.26	0.203	0.17	0.196	0.2	0.191
NCI-H1975	0.305	0.335	0.304	0.28	0.322	0.795	0.77	0.727	0.723	0.634	0.356	0.325	0.387	0.326	0.373	0.156	0.122	0.363	0.335	0.336
HARA	0.447	0.491	0.494	0.435	0.307	0.761	0.582	0.848	–	0.706	1.45	1.35	1.27	1.22	1.13	–	0.897	0.895	0.775	0.776
SK-MES-1	0.421	0.3	0.326	0.37	0.32	0.858	0.665	0.627	0.592	0.411	0.564	0.574	0.595	0.57	0.616	0.83	0.889	0.95	0.747	0.744
NCI-H2405	0.343	0.458	0.439	0.402	0.35	0.916	0.883	0.837	0.821	0.752	–	0.744	0.635	0.688	0.555	0.585	0.581	0.774	0.664	0.737
NCI-H1734	0.478	0.491	0.466	0.469	0.416	0.675	0.622	0.61	0.56	0.565	0.652	0.763	0.653	0.662	0.726	0.145	0.2	0.206	0.181	0.19
NCI-H1299	0.882	0.88	0.738	0.646	0.406	1.03	1.01	0.927	0.873	0.638	–	–	–	–	–	–	–	–	–	–

Cell Line	relative viability ([1]; first compound 0.08 µM)	relative viability ([1]; first compound 0.253 µM)	relative viability ([1]; first compound 0.8 µM)	relative viability ([1]; first compound 2.53 µM)	relative viability ([1]; first compound 8 µM)	relative viability ([2]; first compound 0.08 µM)	relative viability ([2]; first compound 0.253 µM)	relative viability ([2]; first compound 0.8 µM)	relative viability ([2]; first compound 2.53 µM)	relative viability ([2]; first compound 8 µM)	relative viability ([3]; first compound 10 µM)	relative viability ([3]; first compound 31.62 µM)	relative viability ([3]; first compound 100 µM)	relative viability ([3]; first compound 316.23 µM)	relative viability ([3]; first compound 1000 µM)	relative viability ([4]; first compound 10 µM)	relative viability ([4]; first compound 31.62 µM)	relative viability ([4]; first compound 100 µM)	relative viability ([4]; first compound 316.23 µM)	relative viability ([4]; first compound 1000 µM)
NCI-H1915	1.12	0.91	0.943	0.878	0.752	0.262	0.257	0.266	0.264	0.239	–	0.302	0.302	0.289	–	–	0.724	0.835	0.785	0.795
NCI-H2228	0.338	0.417	0.451	0.355	0.539	0.837	0.754	0.456	0.58	0.323	0.699	0.681	0.398	0.434	0.553	0.133	0.185	0.157	0.165	0.209
NCI-H650	0.963	0.878	0.847	0.678	0.654	0.35	0.458	0.439	0.365	0.334	1.09	1	1.06	0.817	0.94	0.953	1.03	1.06	0.92	1.09
NCI-H2009	1.12	0.727	0.737	0.644	0.501	0.722	0.651	0.64	0.431	0.443	0.366	0.362	0.387	0.36	0.384	1.07	1.09	1.08	1.02	0.93
NCI-H23	0.547	0.522	0.458	0.426	0.492	0.305	0.322	0.301	0.316	0.238	0.433	0.492	0.384	0.385	0.575	0.207	0.244	0.218	0.272	0.214
NCI-H2087	0.864	0.815	0.826	0.749	0.779	0.633	0.653	0.541	0.645	0.493	0.232	0.222	0.18	0.152	0.254	–	0.293	0.225	0.223	0.157
ABC-1	–	1.01	0.637	0.752	0.552	–	0.957	0.626	0.769	0.638	–	–	–	–	–	0.481	0.694	0.883	0.306	0.371
A549	0.651	0.626	0.421	0.488	0.406	0.329	0.382	0.414	0.367	0.302	–	–	–	–	–	–	–	–	–	–
NCI-H1648	–	–	–	–	–	0.934	0.854	0.761	0.501	0.433	–	0.553	0.68	0.53	0.73	–	–	–	–	–
HCC-366	0.22	0.184	0.183	0.129	0.111	0.435	0.372	0.249	0.292	0.245	0.301	0.289	0.23	0.279	0.314	–	–	–	–	–
SW 900	–	–	–	–	–	0.974	0.823	0.842	0.714	0.606	1.09	1.07	–	0.825	1.2	0.152	0.177	0.179	0.192	0.214
NCI-H1623	–	–	–	–	–	–	–	–	–	–	–	–	–	–	–	0.475	0.429	0.596	0.487	0.755
NCI-H2342	–	–	–	–	–	0.419	0.477	0.457	0.438	0.368	–	0.773	0.9	0.823	0.801	0.687	0.706	0.726	0.731	0.71
NCI-H1703	0.239	0.272	0.198	0.222	0.221	0.512	0.21	0.173	0.159	0.138	–	–	–	–	–	–	–	–	–	–
Calu-6	0.954	0.951	0.813	0.864	0.602	0.618	0.648	0.541	0.426	0.393	–	–	–	–	–	–	–	–	–	–
EBC-1	0.36	0.345	0.299	0.247	0.157	0.76	0.698	0.65	0.588	0.472	–	–	–	–	–	–	–	–	–	–
IA-LM	0.384	0.266	0.363	0.325	0.287	0.765	0.766	0.769	0.607	0.396	–	–	–	–	–	–	–	–	–	–
NCI-H1563	0.644	0.656	0.62	0.644	0.632	–	–	–	–	–	–	–	–	–	–	0.588	0.629	0.577	0.407	0.584
HCC-78	0.299	0.158	0.236	0.221	0.205	0.803	0.696	0.878	0.711	0.768	–	1.3	1.15	1.1	0.541	–	–	–	–	–

— the supplement of paper PMC10307832
